Test results taken from patent US9539298B2, “Lissencephaly therapeutic agent” (OSAKA CITY UNIVERSITY, priority 2010, dated 2017).

Target: T1, μ-calpain (derived from human red blood cells) (Homo sapiens, UniProt P07384)
T1 construct: derived from human red blood cells; purchased Cosmo Bio Co., Ltd; host or cells: human red blood cells (tissue-purified)
T1 sequence (P07384 1-714): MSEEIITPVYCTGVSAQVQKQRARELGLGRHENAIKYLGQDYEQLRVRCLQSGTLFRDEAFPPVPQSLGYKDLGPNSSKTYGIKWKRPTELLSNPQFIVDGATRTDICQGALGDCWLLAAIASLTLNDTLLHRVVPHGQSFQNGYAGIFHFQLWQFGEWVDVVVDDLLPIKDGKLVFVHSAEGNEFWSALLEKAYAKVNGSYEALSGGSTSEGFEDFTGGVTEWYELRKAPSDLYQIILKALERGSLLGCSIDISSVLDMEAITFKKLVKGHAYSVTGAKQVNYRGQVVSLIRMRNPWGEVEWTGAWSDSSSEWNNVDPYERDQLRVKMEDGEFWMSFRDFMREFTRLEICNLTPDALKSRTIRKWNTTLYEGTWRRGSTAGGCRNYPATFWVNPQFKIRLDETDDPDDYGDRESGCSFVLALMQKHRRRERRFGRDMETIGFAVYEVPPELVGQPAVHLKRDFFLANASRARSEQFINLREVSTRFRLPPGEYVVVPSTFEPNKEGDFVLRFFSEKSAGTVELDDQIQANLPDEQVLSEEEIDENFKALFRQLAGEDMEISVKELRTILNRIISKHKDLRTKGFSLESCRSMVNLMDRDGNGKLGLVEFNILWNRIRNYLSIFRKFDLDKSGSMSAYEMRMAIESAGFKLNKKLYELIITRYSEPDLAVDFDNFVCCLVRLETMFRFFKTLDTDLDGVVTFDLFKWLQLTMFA
T1 sequence (P04632 1-268 partner): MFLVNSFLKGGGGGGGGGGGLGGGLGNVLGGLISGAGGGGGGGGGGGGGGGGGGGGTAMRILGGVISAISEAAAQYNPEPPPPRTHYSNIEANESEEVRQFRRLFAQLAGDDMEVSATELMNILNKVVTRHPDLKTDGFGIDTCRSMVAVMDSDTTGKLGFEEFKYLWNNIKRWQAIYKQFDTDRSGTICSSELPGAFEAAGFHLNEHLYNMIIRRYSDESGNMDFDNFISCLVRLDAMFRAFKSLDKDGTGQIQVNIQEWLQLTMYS
Experiment: Measurement of inhibitory activity against μ-calpain
Type: biochemical
Settings: casein substrate, 30° C., 60 minutes; read-out: enzyme inhibitory activities (μM) μ-calpain
Protocol: The inhibitory activity against μ-calpain and m-calpain was assayed according to a published method (Anal. Biochem. 1993, vol. 208, p. 387-392). More specifically, 200 μL of a reaction solution containing 0.5 mg/mL casein, 50 mM Tris-HCl buffer (pH 7.4), 20 mM dithiothreitol and 1.0 nmol μ-calpain (derived from human red blood cells, Cosmo Bio Co., Ltd.) or m-calpain (derived from porcine kidney, Cosmo Bio Co., Ltd.) was added to individual 2.5 μL portions of DMSO solution containing a varying concentration of a test sample in a 96-well plate. Then, 50 μL of 20 mM aqueous calcium chloride was added thereto, and reaction was performed at 30° C. for 60 minutes. 100 μL of the reaction solution was transferred to another 96-well plate, and purified water (50 μL) and 50% aqueous solution (100 μL) of Protein Assay Dye Reagent (available from Bio-Rad Laboratories, Inc.; catalogue No. 500-600) were added thereto. The reaction mixture was allowed to stand at room temperature for 15 minutes, and its absorbance was measured at 595 nm. The absorbance of a reaction mixture prepared in the same manner as mentioned above, except that a DMSO solution containing no sample was used as a control value; and the absorbance of a reaction mixture prepared in the same manner as mentioned above, except that a 1 mM aqueous EDTA solution (50 μL) was used in place of 20 mM aqueous calcium chloride, was used as a blank value. […] Inhibition rate (%){1−(measured value−blank test value)/(control value−blank test value)}×100
The concentrations (IC50) are shown in Table 1 as enzyme (calpain) inhibitory activities (μM).

Compound: COCCOCCOC(=O)N[C@@H](CC(C)C)C(=O)N[C@@H](Cc1ccccc1)C(=O)C(=O)NC1CC1 [compound 17, ((1S)-1-((((1S)-1-Benzyl-2,3-dioxo-3-(cyclopropylamino)propyl)amino)carbonyl)-3-methylbutyl)carbamic acid 5-methoxy-3-oxapentyl ester]
- IC50: 0.17 µM
